Test results published in patent US8088819B2, “Derivatives of substituted 3-phenyl-1-(phenylthienyl)propan-1-ones and of 3-phenyl-1-(phenylfuranyl) propan-1-ones, preparation and use” (priority 2006, dated 2012).

Legend:
[1] = system: C57Bl6 mouse; assay: Plasma lipid assays in the C57Bl6 mouse, compound 2 at dose effect; format: in vivo
Description: The effect of compound 2, administered at dose effect, is evaluated in vivo in the C57Bl6 mouse after 14 days of treatment by the oral route. At the end of the treatment, the antilipemic effect of compound 2 is evaluated by measuring the plasma levels of total cholesterol, of HDL-cholesterol, of triglycerides and of free fatty acids.
Female C57Bl6 mice were kept under a cycle of light and darkness of 12/12 hours at a constant temperature of 20±3° C. After acclimation for one week, the mice were weighed and put into groups of 6 animals selected so that the distribution of their body weight, of their plasma lipid levels and of total cholesterol determined for the first time before the experiment, is uniform. The test compounds were suspended in carboxymethylcellulose (Sigma C4888) and administered by intragastric force feeding, at a rate of once per day for 14 days at the chosen dose. The animals had free access to water and to food (standard diet). At the end of the experiment, the animals were anesthetized after fasting for 4 hours. A blood sample was taken using anticoagulant (EDTA), then the mice were weighed and euthanased. The plasma was separated by centrifugation at 3000 rev/min for 20 minutes, and the samples were stored at +4° C.
Plasma concentrations of total cholesterol and of triglycerides were measured by enzyme assays (bioMérieux-Lyon-France) following the supplier's recommendations.
Low-density lipoproteins (VLDL and LDL) were precipitated with phosphotungstate. The precipitate was removed by centrifugation. The HDL-cholesterol present in the supernatant was quantified by enzyme assays (bioMérieux-Lyon-France) following the supplier's recommendations.
Plasma concentrations of free fatty acids were measured by enzyme assays (WACO chemicals) following the supplier's recommendations.

[2] = system: target genes of the PPARs; assay: Expression of target genes of the PPARs in hepatic and muscle tissues of the db/db mouse, quantitative RT-PCR; format: in vivo; details: db/db mice; 50 mpk; 28 days
Description: The efficacy of the compound according to the invention is also evaluated by measuring, in the hepatic and muscle tissues, the expression of genes involved in carbohydrate and lipid metabolism, and the dissipation of energy. The levels of expression of each gene are normalized relative to the level of expression of the reference genes 36B4 in the liver and 18S in the skeletal muscle. The induction factor, i.e. the ratio of the relative signal (induced by the compound according to the invention) to the mean of the relative values of the control group, is then calculated. The higher this factor, the greater the gene expression activating character of the compound. The final result is represented as the mean of the induction values in each experimental group.
Female db/db mice were kept under a cycle of light and darkness of 12/12 hours at a constant temperature of 20±3° C. After acclimation for one week, the mice were weighed and put in groups of 8 animals selected so that the distribution of their body weight and of their plasma lipid levels, determined for the first time before the experiment, are uniform. The test compounds were suspended in carboxymethylcellulose (Sigma C4888) and administered by intragastric force feeding, at a rate of once per day for 28 days at the chosen dose. The animals had free access to water and to food (standard diet). The food intake and the weight gain are recorded throughout the experiment. At the end of the experiment, the animals were anesthetized after fasting for 4 hours, a blood sample was taken using anticoagulant (EDTA), then the mice were weighed and euthanased. The plasma was separated by centrifugation at 3000 rev/min for 20 minutes, and the samples were stored at +4° C.
Samples of hepatic and muscle tissues were taken and frozen immediately in liquid nitrogen and then stored at −80° C. for later analyses. […]
1 μg of total RNA (quantified by UV spectrophotometry) was then reverse-transcribed to complementary DNA by reaction for 1 hour at 37° C. in a total volume of 30 μl containing buffer 1× (Invitrogen), 1.5 mM of DTT, 0.18 mM of dNTPs (Promega), 200 ng of pdN6 (Amersham), 30 U of RNase inhibitor (Promega) and 1 μl of MMLV-RT (Invitrogen).
The quantitative PCR experiments were carried out using the MyiQ Single-Color Real-Time PCR Detection System (Biorad, Marnes-la-Coquette, France) and were performed using the iQ SYBR Green Supermix kit following the supplier's recommendations, in 96-well plates, on 5 μL of diluted reverse-transcription reaction mixture with a hybridization temperature of 60° C. […]
The amount of fluorescence emitted is directly proportional to the amount of complementary DNA present at the start of the reaction and amplified during PCR. […] The relative expression levels of each target are thus determined using the efficacy curves obtained with the points in the range.
The levels of expression of the genes of interest were then normalized, […] relative to the level of expression of the reference gene 36B4 (whose specific primers are: sense primer: 5′-[…]-3′ (SEQ ID No. 19) and antisense primer: 5′-[…]-3′ (SEQ ID No. 20)), and in the muscle tissue relative to the level of expression of the reference gene 18S (whose specific primers are: sense primer: 5′-[…]-3′ (SEQ ID No. 21) and antisense primer: 5′-[…]-3′ (SEQ ID No. 22)). The induction factor was calculated for each sample. […]

CC(C)(Oc1ccc(CCC(=O)c2ccc(-c3ccc(C(F)(F)F)cc3)s2)c(Cl)c1Cl)C(=O)O [Compound 2, 2-(2,3-dichloro-4-(3-oxo-3-(5-(4-(trifluoromethyl)phenyl)thien-2-yl)propyl)phenoxy)-2-methylpropanoic acid]
lipid profile ([1]; C57Bl6 mice treated for 14 days): improves | plasma triglyceride levels ([1]; C57Bl6 mouse, 14 days oral, 1, 5, 10 and 50 mpk, significant effect at 50 mpk): dose-dependent decrease | plasma total cholesterol levels ([1]; C57Bl6 mouse, 14 days oral, at 5 and 50 mpk (tested 1, 5, 10 and 50 mpk)): significantly increased | plasma HDL-cholesterol levels ([1]; C57Bl6 mouse, 14 days oral, dose-dependent manner starting from 1 mpk): significantly increased | plasma levels of free fatty acids ([1]; C57Bl6 mouse, 14 days oral, starting from 10 mpk): lowered significantly | expression of the gene coding for ACOX1 in the liver [2]: significant increase | expression of the gene coding for CPT1b in the skeletal muscle [2]: significant increase | expression of the gene coding for PDK4 in the liver [2]: significant increase | expression of the gene coding for PDK4 in the skeletal muscle [2]: significant increase | expression of the gene coding for UCP2 in the skeletal muscle [2]: significant increase
